In US9828339B2, “Biphenyl derivatives and methods for preparing same” (DONG-A ST CO., LTD, priority 2013, dated 2017):

Columns and labels:
[1] = biological target: T1, human muscarinic M3 receptor (Homo sapiens (Human), UniProt P20309); test: Binding assay on human muscarinic M3 receptor ([3H]-methyl scopolamine displacement); conditions: membranes overexpressing human M3 receptor, Ki from IC50 by Cheng-Prusoff, read-out: Binding Affinity to M3 Receptor, Ki
Outline: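 Displacement of [3H]-methyl scopolamine from membranes overexpressing human M3, in Tris-HCl, 25 °C, 120 min; filter-bound radioactivity counted. Nonspecific binding with 5 μM atropine; Ki from IC50 via Cheng-Prusoff.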

[2] = system: rhythmic bladder contractions; test: Rhythmic bladder contractions in rats (in vivo); set-up: species or system rat; conditions: 0.3 mpk, intravenous, female Sprague-Dawley rats; amplitude reduction of bladder contractions
From the text: [Experimental Example 3] Experiment on Rhythmic Bladder Contractions in Rats (In Vivo)
Female Sprague-Dawley rat was halothane-anesthetized, and a polyethylene catheter was inserted through urethra lay down straight and fixed. Urine in bladder was excreted through the catheter by gently massaging abdomen of the rat, and then removed. A three-way stopcock was connected to the catheter and a pressure transducer was connected to one side of the three-way stopcock to measure pressure, and a syringe was installed at the other side to inject 37° C. of saline solution. The saline solution was slowly injected until regular bladder contractions occurred repeatedly. When regular bladder contractions occurred stably, test compounds were administered intravenously through the tail vein. Inhibitory effect of the test compounds was evaluated by measuring degree of amplitude reduction of bladder contractions.

[3] = biological target: T1, human muscarinic M3 receptor; test: Antagonism assay on human muscarinic M3 receptor (carbachol-induced intracellular calcium, FLIPR Calcium 5, transfected Cos-7 cells); assay type: cell-based; conditions: functional inhibitory constant; carbachol-induced intracellular calcium in Cos-7 cells transfected with human M3 receptor
Protocol: [Experimental Example 2] Antagonism Assay on Human Muscarinic M3 Receptor
The antagonism assay for various compounds of the present invention was conducted on antagonism to human M3 receptor in Cos-7 cells that was transfected with plasmid coding human muscarinic M3 receptor. Test compounds in various concentrations were pre-treated to the cells for 3 minutes, and then the changes of intracellular calcium were measured after treating the same with carbachol (i.e. muscarinic receptor agonist). The FLIPR® Calcium 5 assay (Molecular Devices) and Flex3 device (Molecular Devices) were used to measure concentration of calcium. Amounts of calcium before and after carbachol treatment were set as 0% and 100% respectively. Inhibition rates (%) by the compounds for increase in intracellular calcium by carbachol were calculated. The antagonistic potency of the test compounds on human muscarinic M3 receptor was calculated as the functional inhibitory constant (Ki), which can be calculated from concentration (IC50) of compound inhibiting 50% of activity of carbachol according to Cheng and Prusoff equation.

T1 sequence (P20309 whole entry): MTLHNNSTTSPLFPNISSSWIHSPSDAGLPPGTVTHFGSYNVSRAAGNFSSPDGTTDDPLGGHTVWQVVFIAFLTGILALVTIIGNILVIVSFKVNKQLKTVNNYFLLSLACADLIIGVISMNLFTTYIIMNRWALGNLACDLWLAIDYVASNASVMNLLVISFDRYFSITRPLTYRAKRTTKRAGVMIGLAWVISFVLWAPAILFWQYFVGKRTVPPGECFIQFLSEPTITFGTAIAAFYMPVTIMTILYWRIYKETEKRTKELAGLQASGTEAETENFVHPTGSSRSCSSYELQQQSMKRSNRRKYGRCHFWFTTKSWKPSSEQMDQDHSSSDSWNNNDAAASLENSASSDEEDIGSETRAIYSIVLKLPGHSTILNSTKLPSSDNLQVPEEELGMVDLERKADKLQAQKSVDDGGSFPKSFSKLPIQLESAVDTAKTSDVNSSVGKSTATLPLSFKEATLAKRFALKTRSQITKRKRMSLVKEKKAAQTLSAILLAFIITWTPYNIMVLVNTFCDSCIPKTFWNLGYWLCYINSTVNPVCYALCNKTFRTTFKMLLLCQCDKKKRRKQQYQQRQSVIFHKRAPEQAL

SMILES	Ki [1]	Ki [3]	Inhibition of Rhythmic bladder contraction in rats [2]
CN1CCCC1CCOC(=O)Nc1ccccc1-c1ccccc1 (stereo not drawn) [Example 6, 2-(1-methylpyrrolidin-2-yl)ethyl[1,1′-biphenyl]-2-ylcarbamate]	2.47 nM		28.5 ± 4.6%
CN1CCC[C@H]1COC(=O)Nc1cc(F)ccc1-c1cccc(F)c1 [Example 205, (S)-(1-methylpyrrolidin-2-yl)methyl(3′,4-difluoro-[1,1′-biphenyl]-2-yl)carbamate]	7.95 nM		11.9 ± 3.7%
CN1CCC[C@H]1COC(=O)Nc1ccccc1-c1cccc(F)c1 [Example 160, (S)-(1-methylpyrrolidin-2-yl)methyl(3′-fluoro-[1,1′-biphenyl]-2-yl)carbamate]	4.29 nM		15.5 ± 2.4%
CN1CC[C@@H](COC(=O)Nc2ccccc2-c2cc(F)cc(Cl)c2)C1 [Example 132, (R)-(1-methylpyrrolidin-3-yl)methyl(3′-chloro-5′-fluoro-[1,1′-biphenyl]-2-yl)carbamate]	4.64 nM	0.75 nM	
CN1CCC[C@H]1COC(=O)Nc1ccc(F)cc1-c1ccc(F)c(Cl)c1 [Example 211, (S)-(1-methylpyrrolidin-2-yl)methyl(3′-chloro-4′,5-difluoro-[1,1′-biphenyl]-2-yl)carbamate]	9.91 nM	10 nM	
CN1CCCC1CCOC(=O)Nc1ccc(Cl)cc1-c1cccc(F)c1 (stereo not drawn) [Example 67, 2-(1-Methylpyrrolidin-2-yl)ethyl(5-chloro-3′-fluoro-[1,1′-biphenyl]-2-yl)carbamate]	16.3 nM	11.9 nM	
CN1CC[C@@H](COC(=O)Nc2ccccc2-c2ccc(F)c(F)c2)C1 [Example 115, (R)-(1-methylpyrrolidin-3-yl)methyl(3′,4′-difluoro-[1,1′-biphenyl]-2-yl)carbamate]	7.49 nM	0.32 nM	

The remaining compounds from weak to strong by Ki [1], led by results:

Ki [1]	Ki [3]	SMILES	Inhibition of Rhythmic bladder contraction in rats [2]
18.5 nM		Cc1ccc(NC(=O)OCCC2CCCN2C)c(-c2ccccc2)c1 (stereo not drawn) [Example 26, 2-(1-methylpyrrolidin-2-yl)ethyl(5-methyl-[1,1′-biphenyl]-2-yl)carbamate]	11.0 ± 2.5%
10.6 nM	1.15 nM	CN1CC[C@@H](COC(=O)Nc2ccccc2-c2ccccc2F)C1 [Example 156, (R)-(1-methylpyrrolidin-3-yl)methyl(2′-fluoro-[1,1′-biphenyl]-2-yl)carbamate]	
8.1 nM		CN1CCCC1COC(=O)Nc1ccccc1-c1ccc(F)cc1 (stereo in doubt) [Example 99, (S)-(1-methylpyrrolidin-2-yl)methyl (4′-fluoro-[1,1′-biphenyl]-2-yl)carbamate]	16.3 ± 1.0%
4.62 nM		O=C(Nc1ccccc1-c1ccccc1)OC[C@@H]1CCNC1 [Example 78, (R)-pyrrolidin-3-ylmethyl [1,1′-biphenyl]-2-ylcarbamate]	17.9 ± 2.1%
4.6 nM		Cc1cccc(-c2cc(F)ccc2NC(=O)OC[C@@H]2CCN(C)C2)c1 [Example 192, (R)-(1-methylpyrrolidin-3-yl)methyl(5-fluoro-3′-methyl-[1,1′-biphenyl]-2-yl)carbamate]	18.6 ± 3.6%
2.7 nM		Cc1cccc(-c2cc(F)ccc2NC(=O)OC[C@@H]2CCCN2C)c1 [Example 201, (S)-(1-methylpyrrolidin-2-yl)methyl (5-fluoro-3′-methyl-[1,1′-biphenyl]-2-yl)carbamate]	9.1 ± 3.0%
2.36 nM		CN1CCC[C@H]1COC(=O)Nc1ccc(F)cc1-c1ccc(F)cc1 [Example 203, (S)-(1-methylpyrrolidin-2-yl)methyl (4′,5-difluoro-[1,1′-biphenyl]-2-yl)carbamate]	19.4 ± 4.0%
0.8 nM		CCN1CCC[C@H]1COC(=O)Nc1ccccc1-c1ccccc1 [Example 106, (S)-(1-ethylpyrrolidin-2-yl)methyl [1,1′-biphenyl]-2-ylcarbamate]	32.7 ± 5.2%
